Measured values: patent US20230241188A1 (priority 2020, published 2023)
Like-named read-outs stand apart in the source and are kept apart here.

Assays:
[1] = test system: SARS-COV-2 R209112 strain
envelope protein = envelope protein (Severe acute respiratory syndrome coronavirus 2, UniProt P0DTC4); format: biochemical, SARS-CoV-2
[2] = molecular target: Recombinant SARS-CoV-2 spike protein (Severe acute respiratory syndrome coronavirus 2, UniProt P0DTC2); format: biochemical
[3] = test system: SARS-COV-2 R209112 strain; experiment: SARS-CoV-2 inactivation test, Vero cells, optical microscope observation; format: cell-based
[4] = test system: SARS-COV-2 R209112 strain; format: cell-based
[5] = test system: wild-type (WT) SARS-CoV-2 strain (EPI_ISL_578176); format: cell-based
[6] = molecular target: SARS-CoV-2 (2019-nCoV) Envelope Recombinant Protein (Severe acute respiratory syndrome coronavirus 2, UniProt P0DTC4); format: biochemical
SARS-CoV-2 (2019-nCoV) Envelope Recombinant Protein, sequence (P0DTC4 whole entry): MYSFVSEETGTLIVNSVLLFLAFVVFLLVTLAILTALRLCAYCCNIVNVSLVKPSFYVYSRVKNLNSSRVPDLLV

envelope protein, sequence (P0DTC4 whole entry): as above

Compound: CC(=O)N[C@@H](CS)C(=O)O [Acetylcysteine, acetylcysteine]
- TOXICITY (optical microscope observation) (Vero cells): Nil
- viral inactivation test (RNA extraction), Δlog, V1 [1]: 0.088 log
- viral inactivation test (RNA extraction), Δlog, V2 [1]: 0.224 log
- differential assay between Acetylcysteine and DTT (slope ratio) (envelope protein): 60%
- disulphide bonds reduced by Acetylcysteine before the addition of DTT (envelope protein): 40%
- comparative reduction of disulphide bonds, DTT alone vs DTT with Acetylcysteine (slope ratio) [2]: 42%
- disulphide linkages reduced by Acetylcysteine [2]: 58%
- optical microscope observation of SARS-CoV-2 infection, V1 [3]: +
- optical microscope observation of SARS-CoV-2 infection, V2 [3]: +
- optical microscope observation of SARS-CoV-2 infection, V3 [3]: - and +
- optical microscope observation of SARS-CoV-2 infection, V4 [3]: -
- optical microscope observation of SARS-CoV-2 infection, V5 [3]: -
- therapeutic effect (cytopathic effect at 5 days), in words [3]: did not show any therapeutic effect
- effect (cytopathic effect at 7 days), in words [4]: did not show any effect
- optical microscope observation of SARS-CoV-2 infection, V1 [4]: +
- optical microscope observation of SARS-CoV-2 infection, V2 [4]: +
- optical microscope observation of SARS-CoV-2 infection, V3 [4]: -
- optical microscope observation of SARS-CoV-2 infection, V4 [4]: -
- optical microscope observation of SARS-CoV-2 infection, V5 [4]: -
- TOXICITY (optical microscope observation) (BGM cells): Nil
- viral inhibition (CPE, optical and Neutral Red cell staining) [5]: no viral inhibition
- envelope protein band on SDS-PAGE gel [6]: did not disintegrate the protein

Compound: Bromelain
- TOXICITY (optical microscope observation) (Vero cells): Nil
- TOXICITY (optical microscope observation) (BGM cells): Nil
